Laboratory results as given in ChEMBL document CHEMBL1159093, “Discovery and optimization of RO-85, a novel drug-like, potent, and selective P2X3 receptor antagonist” (Bioorg Med Chem Lett, 2010).

Columns and labels:
[1] = molecular target: Adenosine receptor A3 (Homo sapiens) (UniProt P0DMS8); assay: Displacement of [125I]AB-MECA from human recombinant A3 receptor expressed in HEK293 cells at 10 uM after 120 mins by scintillation counting; type: cell-based
[2] = molecular target: Adrenergic receptor alpha-1 (Rattus norvegicus) (UniProt P15823+P23944+P43140); assay: Displacement of [3H]prazosin from alpha1 receptor in rat cerebral cortex at 10 uM after 60 mins by scintillation counting; type: tissue-based
[3] = molecular target: Adrenergic receptor alpha-2 (Rattus norvegicus) (UniProt P22086+P19328+P22909); assay: Displacement of [3H]RX 821002 from alpha2 receptor in rat cerebral cortex at 10 uM after 60 mins by scintillation counting; type: tissue-based
[4] = molecular target: Cannabinoid receptor 1 (Homo sapiens) (UniProt P21554); assay: Displacement of [3H]CP-55940 from human recombinant CB1 receptor expressed in CHO cells at 10 uM after 120 mins by scintillation counting; type: cell-based
[5] = molecular target: D(1A) dopamine receptor (Homo sapiens) (UniProt P21728); assay: Displacement of [3H]SCH 23390 from human recombinant dopamine D1 receptor expressed in CHO cells at 10 uM after 60 mins by scintillation counting; type: cell-based
[6] = molecular target: D(3) dopamine receptor (Homo sapiens) (UniProt P35462); assay: Displacement of [3H]methyl-spiperone from human recombinant dopamine D3 receptor expressed in CHO cells at 10 uM after 60 mins by scintillation counting; type: cell-based
[7] = molecular target: Melatonin receptor type 1A (Homo sapiens) (UniProt P48039); assay: Displacement of [125I]2-iodomelatonin from human recombinant MT1 receptor expressed in CHO cells at 10 uM after 60 mins by scintillation counting; type: cell-based
[8] = molecular target: Muscarinic acetylcholine receptor M3 (Homo sapiens) (UniProt P20309); assay: Displacement of [3H]4-DAMP from human recombinant muscarinic M3 receptor expressed in CHO cells at 10 uM after 60 mins by scintillation counting; type: cell-based
Muscarinic acetylcholine receptor M3 (Homo sapiens), sequence (P20309 whole entry, looked up): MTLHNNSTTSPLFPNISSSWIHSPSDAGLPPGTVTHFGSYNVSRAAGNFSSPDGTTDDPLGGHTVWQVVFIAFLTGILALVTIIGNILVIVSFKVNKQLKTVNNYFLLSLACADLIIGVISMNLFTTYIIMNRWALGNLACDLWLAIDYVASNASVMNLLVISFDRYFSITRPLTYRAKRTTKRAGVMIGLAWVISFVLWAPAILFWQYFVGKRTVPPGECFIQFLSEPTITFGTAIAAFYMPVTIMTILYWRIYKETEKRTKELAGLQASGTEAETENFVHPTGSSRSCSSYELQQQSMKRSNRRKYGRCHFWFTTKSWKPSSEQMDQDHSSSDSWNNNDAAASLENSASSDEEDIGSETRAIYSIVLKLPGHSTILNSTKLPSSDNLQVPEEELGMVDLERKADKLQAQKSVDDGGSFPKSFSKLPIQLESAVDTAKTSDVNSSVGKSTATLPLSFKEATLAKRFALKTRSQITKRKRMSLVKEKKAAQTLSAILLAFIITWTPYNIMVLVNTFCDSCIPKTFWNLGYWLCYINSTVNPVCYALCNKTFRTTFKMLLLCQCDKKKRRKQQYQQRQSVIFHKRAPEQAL

[9] = molecular target: Prostacyclin receptor (Homo sapiens) (UniProt P43119); assay: Displacement of [3H]iloprost from human recombinant IP receptor expressed in HEK293 cells at 10 uM after 60 mins by scintillation counting; type: cell-based
[10] = molecular target: 5-hydroxytryptamine receptor 3A (Homo sapiens) (UniProt P46098); assay: Displacement of [3H]BRL43694 from human recombinant 5HT3 receptor expressed in CHO cells at 10 uM after 120 mins by scintillation counting; type: cell-based
[11] = molecular target: 5-hydroxytryptamine receptor 7 (Homo sapiens) (UniProt P34969); assay: Displacement of [3H]LSD from human recombinant 5HT7 receptor expressed in CHO cells at 10 uM after 120 mins by scintillation counting; type: cell-based
[12] = molecular target: Type-1 angiotensin II receptor (Homo sapiens) (UniProt P30556); assay: Displacement of [125I][Sar1,Ile8]-AT-2 from human recombinant AT1 receptor expressed in HEK293 cells at 10 uM after 120 mins by scintillation counting; type: cell-based
[13] = species: Rattus norvegicus; assay: Displacement of [125I][Tyr4]bombesin from Bombesin receptor in rat cerebral cortex at 10 uM after 60 mins by scintillation counting; type: tissue-based
[14] = molecular target: Cholecystokinin receptor type A (Homo sapiens) (UniProt P32238); assay: Displacement of [125I]CCK-8s from human recombinant CCK1 receptor expressed in CHO cells at 10 uM after 60 mins by scintillation counting; type: cell-based
Cholecystokinin receptor type A (Homo sapiens), sequence (P32238 whole entry): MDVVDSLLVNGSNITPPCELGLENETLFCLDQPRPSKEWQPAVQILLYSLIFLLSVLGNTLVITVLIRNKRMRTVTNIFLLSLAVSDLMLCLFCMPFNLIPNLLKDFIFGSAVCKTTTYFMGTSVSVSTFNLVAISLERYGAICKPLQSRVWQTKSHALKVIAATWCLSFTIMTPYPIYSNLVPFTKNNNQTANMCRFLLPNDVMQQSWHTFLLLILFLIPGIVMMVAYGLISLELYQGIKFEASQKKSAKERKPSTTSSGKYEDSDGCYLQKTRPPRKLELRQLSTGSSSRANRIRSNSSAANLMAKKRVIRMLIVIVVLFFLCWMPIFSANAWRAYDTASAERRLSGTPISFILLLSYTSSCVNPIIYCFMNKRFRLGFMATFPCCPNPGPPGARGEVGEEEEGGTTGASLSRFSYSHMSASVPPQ

[15] = molecular target: Somatostatin receptor (Mus musculus) (UniProt P30935+O08858+P30875+P30873+P49660); assay: Displacement of [125I]Tyr11-somatostatin-14 from somatostatin in mouse AtT-20 cells at 10 uM after 60 mins by scintillation counting; type: cell-based; settings: AtT20
Somatostatin receptor (Mus musculus), sequence (P30935 whole entry): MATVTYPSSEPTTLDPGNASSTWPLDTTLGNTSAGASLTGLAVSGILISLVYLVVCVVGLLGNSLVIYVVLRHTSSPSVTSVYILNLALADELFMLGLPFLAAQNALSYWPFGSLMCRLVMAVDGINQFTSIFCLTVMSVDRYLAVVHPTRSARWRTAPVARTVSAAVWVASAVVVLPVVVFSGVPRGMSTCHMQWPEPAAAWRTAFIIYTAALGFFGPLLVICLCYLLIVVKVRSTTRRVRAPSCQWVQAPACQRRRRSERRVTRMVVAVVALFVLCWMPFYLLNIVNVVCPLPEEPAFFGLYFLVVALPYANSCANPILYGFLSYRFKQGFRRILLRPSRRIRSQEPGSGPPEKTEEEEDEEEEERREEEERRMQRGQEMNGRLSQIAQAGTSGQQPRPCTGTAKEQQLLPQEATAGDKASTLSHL
Somatostatin receptor (Mus musculus), sequence (O08858 whole entry): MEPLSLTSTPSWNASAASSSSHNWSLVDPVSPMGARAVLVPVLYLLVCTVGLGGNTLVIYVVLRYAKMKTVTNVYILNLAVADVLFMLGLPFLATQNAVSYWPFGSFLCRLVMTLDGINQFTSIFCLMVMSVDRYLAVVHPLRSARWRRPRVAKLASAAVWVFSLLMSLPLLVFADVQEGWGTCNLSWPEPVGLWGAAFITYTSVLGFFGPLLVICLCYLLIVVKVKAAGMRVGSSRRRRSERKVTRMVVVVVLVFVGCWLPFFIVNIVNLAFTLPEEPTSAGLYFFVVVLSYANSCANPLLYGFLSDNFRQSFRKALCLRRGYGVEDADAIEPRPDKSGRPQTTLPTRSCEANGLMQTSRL
Somatostatin receptor (Mus musculus), sequence (P30875 whole entry): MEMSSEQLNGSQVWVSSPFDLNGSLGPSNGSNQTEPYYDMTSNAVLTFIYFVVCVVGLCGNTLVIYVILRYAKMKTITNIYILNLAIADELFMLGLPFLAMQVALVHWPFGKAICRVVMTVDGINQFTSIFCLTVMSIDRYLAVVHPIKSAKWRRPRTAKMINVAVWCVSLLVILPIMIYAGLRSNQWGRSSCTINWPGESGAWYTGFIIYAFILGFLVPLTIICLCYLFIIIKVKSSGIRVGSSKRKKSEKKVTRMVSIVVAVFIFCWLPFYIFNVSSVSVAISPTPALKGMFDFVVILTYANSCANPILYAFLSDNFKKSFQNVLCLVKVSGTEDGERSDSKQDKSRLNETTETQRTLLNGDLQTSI
Somatostatin receptor (Mus musculus), sequence (P30873 whole entry): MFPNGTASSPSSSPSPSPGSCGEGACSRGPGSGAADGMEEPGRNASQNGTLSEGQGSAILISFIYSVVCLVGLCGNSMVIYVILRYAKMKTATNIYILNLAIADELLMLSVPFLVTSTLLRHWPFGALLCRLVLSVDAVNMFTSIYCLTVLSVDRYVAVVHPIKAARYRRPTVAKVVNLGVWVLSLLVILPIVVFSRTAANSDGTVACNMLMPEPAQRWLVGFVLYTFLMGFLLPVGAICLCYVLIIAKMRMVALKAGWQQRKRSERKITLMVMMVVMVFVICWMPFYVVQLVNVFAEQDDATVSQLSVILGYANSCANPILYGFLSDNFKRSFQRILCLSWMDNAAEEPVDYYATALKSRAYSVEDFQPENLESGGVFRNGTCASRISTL
Somatostatin receptor (Mus musculus), sequence (P49660 with tags, fused parts or gaps): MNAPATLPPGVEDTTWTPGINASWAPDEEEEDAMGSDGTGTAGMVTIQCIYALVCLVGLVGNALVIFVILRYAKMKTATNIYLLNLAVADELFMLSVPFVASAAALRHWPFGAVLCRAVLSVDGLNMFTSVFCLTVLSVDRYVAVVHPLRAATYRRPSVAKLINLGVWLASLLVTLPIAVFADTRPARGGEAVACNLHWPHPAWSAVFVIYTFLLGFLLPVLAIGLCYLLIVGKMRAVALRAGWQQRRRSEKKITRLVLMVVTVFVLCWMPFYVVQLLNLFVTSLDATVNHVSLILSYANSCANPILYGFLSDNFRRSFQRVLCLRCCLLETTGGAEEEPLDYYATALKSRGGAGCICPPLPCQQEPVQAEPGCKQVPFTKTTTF

[16] = molecular target: Peroxisome proliferator-activated receptor gamma (Homo sapiens) (UniProt P37231); assay: Displacement of [3H]rosiglitazone from human recombinant PPARgamma receptor expressed in Escherichia coli at 10 uM after 120 mins by scintillation counting
Peroxisome proliferator-activated receptor gamma (Homo sapiens), sequence (P37231 whole entry): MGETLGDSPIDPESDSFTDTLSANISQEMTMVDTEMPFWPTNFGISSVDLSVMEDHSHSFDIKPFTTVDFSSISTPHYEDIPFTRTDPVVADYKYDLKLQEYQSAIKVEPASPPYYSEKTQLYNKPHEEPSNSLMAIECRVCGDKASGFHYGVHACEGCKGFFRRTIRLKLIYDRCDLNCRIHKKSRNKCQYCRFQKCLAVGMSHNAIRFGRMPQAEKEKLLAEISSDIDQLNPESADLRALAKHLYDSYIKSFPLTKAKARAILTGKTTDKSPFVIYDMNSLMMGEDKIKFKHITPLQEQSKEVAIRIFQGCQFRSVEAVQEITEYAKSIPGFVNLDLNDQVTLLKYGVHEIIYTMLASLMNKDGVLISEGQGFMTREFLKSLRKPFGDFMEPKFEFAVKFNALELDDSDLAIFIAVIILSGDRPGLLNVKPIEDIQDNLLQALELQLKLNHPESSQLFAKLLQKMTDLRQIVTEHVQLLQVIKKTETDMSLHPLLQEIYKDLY

[17] = species: Rattus norvegicus; assay: Displacement of [3H]batrachotoxinin from sodium channel site2 in rat cerebral cortex at 10 uM after 60 mins by scintillation counting; type: tissue-based
[18] = molecular target: Sodium-dependent serotonin transporter (Homo sapiens) (UniProt P31645); assay: Displacement of [3H]imipramine from human recombinant SERT expressed in CHO cells at 10 uM after 60 mins by scintillation counting; type: cell-based
Sodium-dependent serotonin transporter (Homo sapiens), sequence (P31645 whole entry, looked up): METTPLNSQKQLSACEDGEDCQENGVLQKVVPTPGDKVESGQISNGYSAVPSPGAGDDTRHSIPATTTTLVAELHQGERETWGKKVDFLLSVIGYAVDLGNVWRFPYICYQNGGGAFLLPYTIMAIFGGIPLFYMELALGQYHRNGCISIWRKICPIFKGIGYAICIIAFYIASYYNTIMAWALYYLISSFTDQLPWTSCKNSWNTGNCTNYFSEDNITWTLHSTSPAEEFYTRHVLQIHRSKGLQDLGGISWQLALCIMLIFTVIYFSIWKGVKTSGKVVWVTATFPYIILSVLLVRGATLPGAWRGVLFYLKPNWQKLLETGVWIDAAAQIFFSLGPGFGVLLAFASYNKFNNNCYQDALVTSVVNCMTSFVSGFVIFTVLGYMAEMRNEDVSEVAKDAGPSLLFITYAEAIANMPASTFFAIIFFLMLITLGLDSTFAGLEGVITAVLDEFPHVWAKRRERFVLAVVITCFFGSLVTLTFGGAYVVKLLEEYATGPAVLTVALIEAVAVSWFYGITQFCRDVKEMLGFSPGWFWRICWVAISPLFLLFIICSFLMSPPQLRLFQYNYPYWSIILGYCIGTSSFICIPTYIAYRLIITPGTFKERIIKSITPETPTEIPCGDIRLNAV

[19] = molecular target: Thromboxane A2 receptor (Homo sapiens) (UniProt P21731); assay: Displacement of [3H]SQ29548 from human recombinant TP receptor expressed in HEK293 cells at 10 uM after 60 mins by scintillation counting; type: cell-based
[20] = molecular target: T1, P2X purinoceptor 3 (Rattus norvegicus, UniProt P49654); assay: Antagonist activity at rat P2X3 receptor expressed in CHO cells; type: functional, cell-based
T1 sequence (P49654 whole entry): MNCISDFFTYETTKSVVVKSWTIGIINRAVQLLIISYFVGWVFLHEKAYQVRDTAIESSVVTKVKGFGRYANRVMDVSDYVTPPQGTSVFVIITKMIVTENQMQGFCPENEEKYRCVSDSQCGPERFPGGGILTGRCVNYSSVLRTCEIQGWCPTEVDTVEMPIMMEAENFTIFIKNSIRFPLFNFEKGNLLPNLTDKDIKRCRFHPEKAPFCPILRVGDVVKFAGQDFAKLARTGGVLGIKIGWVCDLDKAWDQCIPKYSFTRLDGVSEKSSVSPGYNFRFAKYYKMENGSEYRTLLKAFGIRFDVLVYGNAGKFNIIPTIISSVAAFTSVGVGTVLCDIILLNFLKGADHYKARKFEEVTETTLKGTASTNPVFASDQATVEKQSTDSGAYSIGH

[21] = Metabolic stability in human liver microsomes; type: ADME, Microsome; settings: read-out: Stability
[22] = molecular target: P2X purinoceptor 1 (Homo sapiens, UniProt P51575); assay: Antagonist activity at P2X1 receptor; type: functional
[23] = molecular target: Tumor necrosis factor (Homo sapiens) (UniProt P01375); assay: Displacement of [125I]TNF-a from TNFalpha in human U937 cells at 10 uM after 120 mins by scintillation counting; type: cell-based; settings: U-937
[24] = molecular target: Endothelin-1 receptor (Homo sapiens) (UniProt P25101); assay: Displacement of [125I]endothelin-1 from human recombinant ETA receptor expressed in CHO cells at 10 uM after 120 mins by scintillation counting; type: cell-based
[25] = molecular target: Galanin receptor type 2 (Homo sapiens) (UniProt O43603); assay: Displacement of [125I]galanin from human recombinant GAL2 receptor expressed in HEK293 cells at 10 uM after 120 mins by scintillation counting; type: cell-based
[26] = molecular target: Platelet-derived growth factor receptor (Mus musculus) (UniProt P05622+P26618); assay: Displacement of [125I]PDGF BB from PDGFR in BALB/c mouse 3T3 cells at 10 uM after 180 mins by scintillation counting; type: cell-based
[27] = molecular target: Melanocortin receptor 4 (Homo sapiens) (UniProt P32245); assay: Displacement of [125I]NDP-a-MSH from human recombinant MC4 receptor expressed in CHO cells at 10 uM after 120 mins by scintillation counting; type: cell-based
Melanocortin receptor 4 (Homo sapiens), sequence (P32245 whole entry): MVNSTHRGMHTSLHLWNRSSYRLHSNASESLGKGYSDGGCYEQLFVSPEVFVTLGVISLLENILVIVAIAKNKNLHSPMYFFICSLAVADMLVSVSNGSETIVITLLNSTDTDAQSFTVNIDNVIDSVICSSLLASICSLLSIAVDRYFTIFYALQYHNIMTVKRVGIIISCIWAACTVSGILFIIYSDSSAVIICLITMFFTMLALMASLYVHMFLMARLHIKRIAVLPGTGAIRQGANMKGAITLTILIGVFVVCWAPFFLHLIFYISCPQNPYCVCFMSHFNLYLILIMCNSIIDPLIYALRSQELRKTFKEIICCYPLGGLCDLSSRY

[28] = molecular target: Adenosine receptor A2a (Homo sapiens) (UniProt P29274); assay: Displacement of [3H]CGS 21680 from human adenosine A2A receptor expressed in HEK293 cells at 10 uM after 120 mins by scintillation counting

Adenosine receptor A3 (Homo sapiens), sequence (P0DMS8 whole entry): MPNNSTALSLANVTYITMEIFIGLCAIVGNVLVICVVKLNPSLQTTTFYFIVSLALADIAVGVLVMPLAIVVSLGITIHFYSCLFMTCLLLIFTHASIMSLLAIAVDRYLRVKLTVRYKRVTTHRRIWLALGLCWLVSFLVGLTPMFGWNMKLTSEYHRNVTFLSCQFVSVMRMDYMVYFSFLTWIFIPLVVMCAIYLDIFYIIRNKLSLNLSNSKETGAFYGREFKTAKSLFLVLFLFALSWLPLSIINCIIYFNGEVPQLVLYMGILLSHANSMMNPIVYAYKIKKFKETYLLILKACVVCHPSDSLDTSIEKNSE

**Q.** For `CC(=O)N1CCN(C[C@@H](C)NC(=O)c2cc3c(-c4ccccc4)nn(C)c3s2)CC1`, which Activity [1] is on record?
**A.** Its Activity is > 50%.

**Q.** And the Activity [2]?
**A.** The Activity was > 50%.

**Q.** What about the Activity [3] of the same compound?
**A.** Its Activity is > 50%.

**Q.** And the Activity [4]?
**A.** The Activity was > 50%.

**Q.** And the Activity [5]?
**A.** Its Activity is > 50%.

**Q.** And the Activity [6]?
**A.** The Activity was > 50%.

**Q.** And the Activity [7]?
**A.** Its Activity is > 50%.

**Q.** And the Activity [8]?
**A.** Its Activity is > 50%.

**Q.** And the Activity [9]?
**A.** Its Activity is > 50%.

**Q.** What about the Activity [10] of the same compound?
**A.** The Activity was > 50%.

**Q.** And the Activity [11]?
**A.** Its Activity is > 50%.

**Q.** And the Activity [12]?
**A.** The Activity was > 50%.

**Q.** And the Activity [13]?
**A.** The Activity was > 50%.

**Q.** And the Activity [14]?
**A.** The Activity was > 50%.

**Q.** What about the Activity [15] of the same compound?
**A.** The Activity was > 50%.

**Q.** And the Activity [16]?
**A.** The Activity was > 50%.

**Q.** And the Activity [17]?
**A.** Its Activity is > 50%.

**Q.** What about the Activity [18] of the same compound?
**A.** The Activity was > 50%.

**Q.** What about the Activity [19] of the same compound?
**A.** Its Activity is > 50%.

**Q.** What about the IC50 [20] of the same compound?
**A.** Its IC50 is 31.6 nM.

**Q.** What about the microsomal CLint [21] of the same compound?
**A.** Its microsomal CLint is 1.7 µL/min/mg.

**Q.** What about the IC50 [22] of the same compound?
**A.** The IC50 was > 10000 nM.

**Q.** And the Activity [23]?
**A.** The Activity was > 50%.

**Q.** And the Activity [24]?
**A.** Its Activity is > 50%.

**Q.** And the Activity [25]?
**A.** The Activity was > 50%.

**Q.** What about the Activity [26] of the same compound?
**A.** The Activity was > 50%.

**Q.** And the Activity [27]?
**A.** The Activity was > 50%.

**Q.** What about the Activity [28] of the same compound?
**A.** The Activity was > 50%.
